These results are taken from article PMC12828148, “Engineered cyclic peptide targeting ITGA5 disrupts tumor–stroma interaction to overcome desmoplasia and resistance in pancreatic ductal adenocarcinoma” (Acta Pharmaceutica Sinica. B, 2025).

Series [1] relates to PANC-1 homospheroids / PANC-1 + PSC heterospheroids. The experiment in a line: 3D spheroid growth and ATP viability, PANC-1 model. It is filed as cell-based. The conditions noted are these: PANC-1 homo- and PANC-1 + PSC hetero-spheroids, treated Days 3 and 6, size Days 3, 6, 9, n = 20. As to the method:
Homo-spheroids containing hPSCs, PANC-1, or MIA PaCa-2, and hetero-spheroids containing 1:1 combination of hPSCs and PANC-1/MIA PaCa-2 were generated in a 96-well round bottom plates precoated with 1% Pluronic F-127 (Sigma–Aldrich). The self-assembled spheroids were exposed to cyAV3.3, gemcitabine, or both after 3 days and 6 days. Before each treatment, images of spheroids were made using inverted microscope. The diameters of spheroids were measured digitally using ImageJ software. After 9 days, spheroids were moved from the wells to a fresh 96-well plate. CellTiter-Glo 3D reagent (Promega, WI, USA) was added to each well and the luminescence signal was measured after 30 min using Varioskan LUX bioluminescent reader (Thermo Scientific) to assess the viability.

Series [2] concerns PANC-1 + PSC and MIA PaCa-2 + PSC co-injection xenograft tumors. The settings on record: PANC-1 + PSC and MIA PaCa-2 + PSC co-injection xenografts, i.p. treatment, n = 4 per group per tumor type. The method, then: Six-week-old male CB17 SCID mice (Janvier Labs, Le Genest-Saint-Isle, France) were subcutaneously injected with a 2:1 mixture of 4 × 10^6 human PSCs and 2 × 10^6 PANC-1 or MIA PaCa-2 cells. Tumor growth was assessed twice a week. Tumor-bearing mice (±100 mm^3) were treated with phosphate buffered saline (PBS), cyAV3.3, gemcitabine, or combination of gemcitabine and cyAV3.3 intraperitoneally (i.p). Animals were euthanized, tumors and other organs were harvested and embedded in Cryomatrix (Thermo Scientific) before being snap frozen in cold 2-methyl butane (Thermo Scientific) and stored at −80 °C until analyses. […]
Immunohistochemical staining of mouse tumors
Tumors were cut into 7 μm thick sections and mounted on glass slides using Cryotome FSE (Thermo Scientific), dried, and fixed in acetone for 15 min. Tumor sections were rehydrated in PBS for 10 min then incubated with primary antibody diluted in PBS for 1 hour at RT. Antibodies […]
Next, slides were washed 3 times with PBS before incubation with secondary fluorescence-labeled antibody diluted in PBS. After 30 min of incubation, slides were washed with PBS and shielded with a DAPI -containing mounting medium. Images were made using a Hamamatsu NanoZoomer Digital slide scanner 2.0HT (Hamamatsu Photonics, New Jersey, […]

Series [3] relates to KPC (LSL-Kras^G12D/+; LSL-Trp53^R172H/+; Pdx1-Cre) PDAC tumors. The experiment in a line: Efficacy in genetically engineered KPC mouse PDAC model. It is filed as in vivo, mice. The settings on record: isolated tumors, n = 6. As to the method:
LSL-Kras^G12D/+; LSL-Trp53^R172H/+; Pdx1-Cre (KPC) mice were bred and maintained, on a mixed background, at the CRUK Scotland Institute. Mice were palpated until an abdominal tumor was detected (between 12 and 28 weeks of age) and were then imaged under anesthesia by 3D ultrasound imaging using the VisualSonics Vevo 3100 system with the MX550D transducer (FujiFilm). Following confirmation of PDAC of 3–6 mm, mice of both sexes were enrolled on treatment with cyAV3.3 25 mg/kg i.p. b.i.w. and gemcitabine (100 mg/kg i.p. b.i.w., n = 6). No mice were excluded from the study. Mice treated with gemcitabine alone were used as control group (n = 6). Follow-up imaging to monitor tumor volume was performed weekly until endpoint was reached (moderate symptoms: abdominal distension, loss of body conditioning, jaundice, hunching, or reduced movement). Upon post-mortem, gross pathology was examined and PDAC and organs harvested and fixed in 10% neutral buffered formalin prior to paraffin embedding and sectioning for histological and IHC analysis. Kaplan–Meier and Log-Rank analysis was used for statistical assessment of survival. Analysis of ultrasound images was performed by researchers blinded to treatment arm using VisualSonics VevoLab software (version 3.1.1). In 3D mode, stacked images of the tumor were imported, and tumor border annotated, allowing a 3D volume analysis.

The test system of series [4] is TGF-β treated PSCs. The experiment in a line: Cell adhesion competition study (PSC attachment to FN-coated plate, crystal violet). It is filed as cell-based, human. The settings on record: 50 μmol/L peptide, 30 min pre-incubation 37 °C, 1 h attachment, crystal violet absorbance 600 nm, n = 3. As to the method:
To analyze the interaction of PSC and FN, a 96 suspension well plate was coated with 100 μL FN (Advanced Biomatrix, Carlsbad, CA, USA) at 1 μg/mL by overnight incubation at 4 °C. Next, the plate was washed with DPBS (Lonza) and blocked with 5% bovine serum albumin (BSA) in DPBS for at least 1 h at RT. In the meantime, a cell suspension of 200,000 cells/mL of TGF-β treated PSCs in DPBS with 2 mmol/L Ca^2+ and 2 mmol/L Mg^2+ was treated with 50 μmol/L AV3.3 or cyAV3.3 and incubated for 30 min at 37 °C. After washing the plate with DPBS, 100 μL cell suspension was added to each well and then set to rest for 1 h at RT. The plate was then washed with DPBS to remove unattached cells. […] Next, cells were stained with 0.1% (w/v) crystal violet (Sigma) in 25% methanol at RT. After 20 min, cells were washed with water and lysed with 0.5% (w/v) SDS. The degree of cell attachment was measured by the absorbance of the crystal violet at 600 nm using Tecan Infinite M200 plate reader (Tecan, Mannendorf, Switzerland). In other plate, cells were washed with DPBS after fixation and then stained with DAPI. Images were developed using EVOS fluorescence microscope (Thermo Scientific).

Series [5] concerns hPSCs. The series is described as follows: Cell viability, Alamar blue assay. It is filed as cell-based, human. The method, then: We investigated the inhibitory effect of both cyclic and linear peptides on PSC activation and signaling. To achieve this, PSCs were seeded and treated with TGF-β and peptides for 48 h (protein expression) or 24 h (gene expression). We also tested the effect of the peptide on the cell viability using Alamar blue assay and found no toxicity (Supporting Information Fig. S3A). […] To quantitate that, we performed Western blot analysis and confirmed the observed effect via immunostaining (Fig. 2B and C; Fig. S3B). The details of the antibodies used can be found in Supporting Information Table S2. […] After obtaining these effects, we focused on cyAV3.3 and examined its inhibitory effects on TGF-β1-stimulated PSCs using qPCR and an RT[2] profiler PCR array for ECM and adhesion receptors (Fig. 2D). […] The details of primers for all genes can be found in Supporting Information Table S3. […] In contrast, cyAV3.3 induced the gene expression of ECM-degrading proteins such as MMP10 and ADAMTS-13 (Supporting Information Fig. S4).

Series [6] has as its system hPSC activated with TGF-β. The series is described as follows: Inhibition of TGF-β-induced PSC activation (immunocytochemical staining, Western blot). The conditions noted are these: 5 ng/mL TGF-β, 48 h, peptides at 20 and 50 μmol/L, immunostaining and Western blot. It is filed as cell-based, human. The method, then: secondary peroxidase labeled antibody was added and incubated for 1 h at RT. The HRP signal was developed using standard chemiluminescence kit and the signal was measured.
To evaluate the stability, 20 µmol/L peptide was incubated in 50% human plasma at biological temperature 37 °C for 1, 2, and 24 h. After incubation, plasma was precipitated by adding equal volume of 4% trichloroacetic acid (TCA) and rested on ice for 10 min. As control (or 0h), precipitation was performed immediately after mixing the peptide and plasma. Supernatant was collected after centrifugation at 13,300 × g and assessed using reversed phase high performance liquid chromatography (HPLC) with 5%, 95%, and 99.9% acetonitrile in de-gassed water with 0.1% trifluoroacetic acid as eluents. The remaining peptide was analyzed at a wavelength 280 nm.
Quantitative real-time PCR
To examine the effect of peptides on the gene expression of hPSC activation markers, cells were seeded into a 12 well plate at a seeding density of 50,000 cells/well. After overnight incubation, cells were starved for 24 h, then treated with human recombinant 5 ng/mL TGF-β (Peprotech, Hamburg, Germany) and […] peptide. After 24 h of the incubation, cells were lysed and total RNA was isolated using GenElute™ Mammalian Total RNA Miniprep Kit (Sigma–Aldrich) and the RNA concentration was measured using a NanoDrop® ND-1000 Spectrophotometer (Thermo Scientific, Waltham, USA). cDNA was synthesized with iScript™ cDNA Synthesis Kit (BioRad, Veenendaal, The Netherlands), and 10 ng cDNA was used for each PCR reaction. […] Quantitative real time PCR was performed with 2× SensiMix SYBR and Fluoroscein Kit (Bioline GmbH, Luckenwalde, Germany) using a BioRad CFX384 Real-Time PCR detection system (BioRad). […]
To evaluate the effect of peptides on the protein expression of hPSC activation markers, hPSCs were seeded into a 12 well plate at seeding density 50,000 cells/well. […] Proteins were detected with […]
medium. […] Images were analyzed using […]
secondary fluorescence-labeled antibody diluted in PBS. […]

Ends that are not written are not given here.

Turning to `Nc1ccn([C@@H]2O[C@H](CO)[C@@H](O)C2(F)F)c(=O)n1` [gemcitabine], the spheroid growth entry in series [1] was “reduced the growth of both homo- and hetero-spheroids”. Further, the “reduction of tumor size / tumor growth” value in series [2] amounted to 60%. In addition, the “collagen deposition (Sirius red) in KPC tumors” value in series [3] was “significantly induced collagen deposition”.

Turning to “cyclo(GYYTRRAYK) [scr, scrambled cyclic peptide control, reference compound]”, in series [4], the “blocking of the binding of PSC to FN” value is “did not show any blocking”.

Consider RYYRATY [AV3.3], for which the “effect on cell viability” value in series [5] is recorded as “no toxicity”. Moreover, in series [6], the “inhibition of PSC activation by TGF-β1 (expression of α-SMA and collagen-1)” value was “inhibited the activation of PSCs”.
